From patent US20050277622A1, “1-Calcium phosphate-uracil and method for preparing thereof” (priority 2004, published 2005) come the findings set out here.

Format in all cases: in vivo, human
The nature of assay [1]: Clinical Case 8: sleeping and stamina. The conditions noted are these: 20 persons aging 12˜70 years; 15 mg per day for one day. The source says:
The medicament can ameliorate sleeping and supplement stamina.

Assay [2] has as its system influenza. The assay can be described thus: Clinical Case 5: treatment of persons infected with influenza. The conditions noted are these: 2 infected persons, oral, 15 mg one time per day for 3 days. The protocol: One day after infection, 2 of 6 infected persons were administrated orally with medicament of 1-calcium phosphate-uracil for 3 day, one time per day, 15 mg each time. Therapeutic effect: fever was allayed after 1 day and symptom of cough faded away after 3 days. Instead of being administrated with medicament of 1-calcium phosphate-uracil, the other 4 infected persons were treated according to conventional therapeutic regimen, recovered until after 15 days.

Assay [3] is described as follows: Clinical Case 7: frequent premature beat, cardiac distress and constipation. The conditions noted are these: person, oral. The protocol:
A person, who had suffered from frequent premature beat, cardiac distress for 3 years and constipation for 5 years, was administrated orally with medicament of 1-calcium phosphate-uracil for 20 days, 13 mg per day.
The therapeutic effect: the symptoms of palpitation premature beat and cardiac distress disappeared completely after 20 days from administration and constipation symptom disappeared after 1 day from administration.

Assay [4] can be described thus: Clinical Case 2: cough, hyperplasia of prostate and constipation. Particulars: person one, oral, 15 mg per day for 5 days. The protocol:
person one, who had been suffering from cough for about 50 years and hyperplasia of prostate for 7 years and recently relapsed into continued cough for 15 days and constipation, was administrated orally with medicament of 1-calcium phosphate-uracil for 5 days, 15 mg per day.

The subject of assay [5] is influenza. The assay can be described thus: Clinical Case 5: administration in advance during influenza period. The conditions noted are these: 2 of 8 persons in a dormitory, oral in advance, 15 mg one time per day for 1 day; other 6 persons all infected.
The nature of assay [6]: Clinical Case 4: fever of 40.5° C. Particulars: person, oral, 15 mg one time per day for 1 day. From the text: Therapeutic effect: fever was allayed after 1 day and symptom of cough disappeared after 3 days.
Assay [7] can be described thus: Clinical Case 1: continued bad cough not susceptive to antibiotics therapy. Particulars: person two, oral, 15 mg per day for 5 days. As for the experimental part: person two, who had been suffering from a continued bad cough for 2 months and not susceptive to antibiotics therapy, was administrated orally with medicament of 1-calcium phosphate-uracil for 5 days, 15 mg per day.

The nature of assay [8]: Clinical Case 3: cold with fever of 39° C. The conditions noted are these: person, oral, 15 mg per day for 1 day. From the text:
Therapeutic effect: fever was allayed after 1 day and symptom of cough disappeared after 2 days.

Assay [9] in a line: Clinical Case 9: liver cancer in a most serious stage. Particulars: person; oral, 15 mg one time per day for 10 months. As for the experimental part:
A person, who suffered liver cancer in a most serious stage, was administrated orally with medicament of 1-calcium phosphate-uracil for 10 months, one time per day, 15 mg each time.
Therapeutic effect: liver tumor was disappeared upon the examination of CT.

Assay [10] is described as follows: Clinical Case 6: constipation for about 10 years. Particulars: 4 persons, 1-2 times a week on conventional drugs; oral, 12 mg˜15 mg one time per day for 1 day. The source says: 4 persons, who had suffered from constipation for about 10 years, defecated 1-2 times a week when administrated with conventional drugs.

As to 1-calcium phosphate-uracil, the “sleeping on the same day” value in assay [1] is reported as “good sleeping”. For the same substance, in assay [1], the “stamina in the next day” value is recorded as “full of vigor”. The “fever was allayed after” value (in the assay on influenza [2] (one day after infection); in [6] (fever of 40.5° C.); in [8] (fever of 39° C.)) was 1 days each time. Also, the “symptom of cough faded away after” value with influenza [2] (conventional regimen recovered after 15 days) is listed as 3 days. The “constipation symptom disappeared after” value in assay [3] (constipation for 5 years, 13 mg per day) worked out at 1 days. In addition, the “symptoms of palpitation premature beat and cardiac distress disappeared completely after” value in assay [3] (13 mg per day for 20 days) is reported as 20 days. Besides, the cough symptom entry in assay [4] (continued cough for 15 days) was “alleviated”. Besides, the frequency of nocturia result in assay [4] (hyperplasia of prostate for 7 years) is “decreased significantly”. For the same substance, the constipation result in assay [4] is reported as “disappeared”. Moreover, the infection with influenza result in the assay with influenza [5] is recorded as “not infected with influenza”. In addition, the entries for the “symptom of cough disappeared after” value in assay [6] and in assay [8] were 3 days and 2 days, respectively. In addition, in [7] (cough for 2 months), the symptom of cough entry is reported as “cured completely”. Moreover, the “symptom of incontinence of urine” value in assay [7] is reported as “disappeared”. In assay [9], the “liver tumor upon the examination of CT” value is listed as “disappeared”. Moreover, the defecation entry in [10] is listed as “defecated smoothly, once a day”.
